Test results taken from ChEMBL document CHEMBL3217455, “Peptides: minimal drug surrogates to interrogate and interfere with protein function” (Medchemcomm, 2013).
Where a SMILES comes first, the peptide text is derived from it.

Molecular target: T1, Rhombotin-2 (Homo sapiens, UniProt P25791)
T1 sequence (P25791 whole entry): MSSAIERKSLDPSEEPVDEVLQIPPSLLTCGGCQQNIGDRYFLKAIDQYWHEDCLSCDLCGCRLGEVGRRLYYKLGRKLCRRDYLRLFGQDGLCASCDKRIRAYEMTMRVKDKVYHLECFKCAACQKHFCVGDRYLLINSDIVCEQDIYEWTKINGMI
Experiment: Binding affinity to GST-tagged LMO2 (unknown origin) by surface plasmon resonance analysis

## CC[C@H](C)[C@H](NC(=O)[C@@H](NC(=O)[C@H](Cc1cnc[nH]1)NC(=O)[C@H](CC(C)C)NC(=O)[C@H](CCCNC(=N)N)NC(=O)[C@H](CO)NC(=O)[C@H](CCC(N)=O)NC(=O)[C@@H](N)CO)[C@@H](C)O)C(=O)N[C@@H](CC(C)C)C(=O)N[C@@H](CS)C(=O)N[C@@H](Cc1cnc[nH]1)C(=O)N[C@@H](CCC(=O)O)C(=O)N[C@@H](CS)C(=O)N[C@H](C(=O)N[C@H](C(=O)N[C@@H](CO)C(=O)N[C@@H](Cc1ccccc1)C(=O)N[C@@H](CC(C)C)C(=O)N[C@@H](CO)C(=O)N[C@@H](CC(C)C)C(=O)O)[C@@H](C)O)C(C)C (H-SQSRLHTILCHECVTSFLSL-OH)
  Kd: 29 nM
